This note sets out measurements from EP4582426A1, “PAN-KRAS INHIBITOR COMPOUND” (Adlai Nortye Biopharma Co., Ltd., priority 2022, dated 2024).

In one test the test system is SW480 (G12V). Nature of the test: In vitro cell proliferation inhibition test (CellTiter-Glo Luminescent Cell Viability Assay). The class given is cell-based. The following applies: SW480 cell line, Large intestine, Colon, KRAS (p.G12V), cells and compounds co-incubated 72 hours. The source says:
(§1) Due to the diversity of RAS mutations and in order to evaluate the activity of compounds in different RAS mutant cell lines, we selected KRAS^WT, KRAS^G12C, KRAS^G12D), KRAS^G12V and BRAF mutant cell lines (see the table below) for in vitro activity evaluation and screening of compounds .
(§2) Experimental protocol: CellTiter-Glo® Cell Luminescent Viability Assay (Promega)
(§3) According to the doubling time of different cell lines, different numbers of cells (1000-5000 cells/well) were inoculated into 96-well plates containing 180 µl of the corresponding medium, and cultured overnight in a 37°C cell incubator containing 5% CO2. On the second day, the compound to be tested was pre-diluted 3-fold with the medium, the highest concentration was 100 µM, and there were 10 concentration gradients in total; then 20 µl of the medium containing different concentrations of the compound was added to the cells in the 96-well plate to ensure the final concentration of the compound to be up to 10 µM, with 10 concentration gradients of 3-fold dilutions. After co-incubating cells and compounds for 72 hours, the 96-well plate was taken out of the incubator, placed at room temperature for 30 minutes, and then 25 µl CellTiter-Glo® Reagent was added to each well to mix well, and incubated at room temperature for 10 minutes, and then 100 µl of the sample was transferred to a white 96-well plate (OptiPlateTM-96, PerkinElmer), the […] signal value was read using a multi-functional microplate reader (SpectraMax® i3x, Molecular devices). Subsequently, the signal value was standardized, and the four-parameter fitting regression equation was used for curve fitting to calculate the half maximal inhibitory concentration (IC50) of the compound on the cell line. Table 3: Antiproliferative activity of compounds of the present invention on KRAS cell mutants

In another test the test system is AsPC-1 (G12D). The description is as above. It is filed as cell-based. The following applies: AsPC-1 cell line, Pancreas, KRAS (p.G12D), cells and compounds co-incubated 72 hours.
From the text: as §1, §2, §3

As a reminder, the IC50 is the concentration that inhibits the measured activity by half. Turning to `CCn1c(-c2cc(C#CCN3CCOCC3)cnc2[C@H](C)OC)c2c3cc(ccc31)-c1csc(n1)C[C@H](NC(=O)[C@H]1[C@H](C)[C@@H]1C)C(=O)N1CCC[C@H](N1)C(=O)OCC(C)(C)C2` [Example 2, (1r,2R,3S)-N-((63S,4S,Z)-11-ethyl-12-(2-((S)-1-methoxyethyl)-5-(3-morpholinoprop-1-yn-1-yl)pyridin-3-yl)-10,10-dimethyl-5,7-dioxo-61,62,63,64,65,66-hexahydro-11H-8-oxa-2(4,2)-thiazola-1(5,3)-indola-6(1,3)-pyridazinacycloundecaphane-4-yl)-2,3-dimethylcyclopropane-1-carboxamide], the concentration for half-maximal inhibition (IC50) was determined as 0.33 nM in the test on SW480 (G12V), 74 nM in the test on SW480 (G12V) (listed as 2'), 0.25 nM in the test with AsPC-1 (G12D) and 172 nM with AsPC-1 (G12D) (listed as 2').

Take `CCn1c(-c2cc(C#CCN3C[C@@H](C)O[C@@H](C)C3)cnc2[C@H](C)OC)c2c3cc(ccc31)-c1csc(n1)C[C@H](NC(=O)[C@H]1C[C@@H]1C)C(=O)N1CCC[C@H](N1)C(=O)OCC(C)(C)C2` (single isomer, unassigned) [Example 9]: the half-maximal inhibitory concentration (IC50) in the test on SW480 (G12V) worked out at 31.6 nM; with SW480 (G12V) (listed as 9'), 963 nM; with AsPC-1 (G12D), 4.5 nM; in the test with AsPC-1 (G12D) (listed as 9'), 1360 nM.

Consider `CCn1c(-c2cc(C#Cc3cccc4c3CN(C)C4)cnc2[C@H](C)OC)c2c3cc(ccc31)-c1csc(n1)C[C@H](NC(=O)[C@H]1C[C@@H]1C)C(=O)N1CCC[C@H](N1)C(=O)OCC(C)(C)C2` (single isomer, unassigned) [Example 30], for which the results for the concentration for half-maximal inhibition (IC50) with SW480 (G12V) and in the test with AsPC-1 (G12D) were 84.2 nM and 8.2 nM, respectively.

As for `CCn1c(-c2cc(C#CC3CCN(CCO)CC3)cnc2C(C)OC)c2c3cc(ccc31)-c1csc(n1)CC(NC(=O)C1CC1C)C(=O)N1CCCC(N1)C(=O)OCC(C)(C)C2` [Example 55, (1S,2S)-N-((6^3S,4S,Z)-1^1-ethyl-1^2-(5-((1-(2-hydroxyethyl)piperidin-4-yl)ethynyl)-2-((S)-1-methoxyethyl)pyridin-3-yl)-10,10-dimethyl-5,7-dioxo-6^1,6^2,6^3,6^4,6^5,6^6-hexahydro-1^1H-8-oxa-2(4,2)-thiazola-1(5,3)-indola-6(1,3)-pyridazinacycloundecaphane-4-yl)-2-methylcyclopropane-1-carboxamide], the IC50 in the test on SW480 (G12V) is 23.3 nM; with AsPC-1 (G12D) it was 3 nM.

Consider `CCn1c(-c2cc(C#CCN3CCN(C)CC3)cnc2[C@H](C)OC)c2c3cc(ccc31)-c1csc(n1)C[C@H](NC(=O)[C@H]1[C@H](C)[C@@H]1C)C(=O)N1CCC[C@H](N1)C(=O)OCC(C)(C)C2` [Example 52, (1r,2R,3S)-N-((6^3S,4S,Z)-1^1-ethyl-1^2-(2-((S)-1-methoxyethyl)-5-(3-(4-methylpiperazin-1-yl)prop-1-yn-1-yl)pyridin-3-yl)-10,10-dimethyl-5,7-dioxo-6^1,6^2,6^3,6^4,6^5,6^6-hexahydro-1^1H-8-oxa-2(4,2)-thiazola-1(5,3)-indola-6(1,3)-pyridazinacycloundecaphane-4-yl)-2,3-dimethylcyclopropane-1-carboxamide], for which the IC50 stood at 0.3 nM with SW480 (G12V) and 0.24 nM in the test on AsPC-1 (G12D).

For the molecule `CCn1c(-c2cc(C#CC3CCNCC3)cnc2[C@H](C)OC)c2c3cc(ccc31)-c1csc(n1)C[C@H](NC(=O)[C@H]1C[C@@H]1C)C(=O)N1CCC[C@H](N1)C(=O)OCC(C)(C)C2` [Example 48, (1S,2S)-N-((6^3S,4S,Z)-1^1-ethyl-1^2-(2-((S)-1-methoxyethyl)-5-(piperidin-4-ylethynyl)pyridin-3-yl)-10,10-dimethyl-5,7-dioxo-6^1,6^2,6^3,6^4,6^5,6^6-hexahydro-1^1H-8-oxa-2(4,2)-thiazola-1(5,3)-indola-6(1,3)-pyridazinacycloundecaphane-4-yl)-2-methylcyclopropane-1-carboxamide], the results for the IC50 in the test on SW480 (G12V) and in the test with AsPC-1 (G12D) were 1.7 nM and 5.4 nM, respectively.

On to `CCn1c(-c2cc(C#CCN3CCC(F)C3)cnc2C(C)OC)c2c3cc(ccc31)-c1csc(n1)CC(NC(=O)C1C(C)C1C)C(=O)N1CCCC(N1)C(=O)OCC(C)(C)C2` (single isomer, unassigned) [Example 21], for which the values for the 50% inhibitory concentration (IC50) in the test with SW480 (G12V) and in the test on AsPC-1 (G12D) were 1.1 nM and 0.82 nM, respectively.
